Square brackets hold non-standard residues; d marks the D form. Peptide text beside a SMILES is read from it. Orn = NCCC[C@H](N)C(=O)O; βAla = NCCC(=O)O
System: BC-1 cells
Assay: MTT assay, deletion and mutant peptides
Format: cell-based, human
Conditions: BC-1, 64 μM
Excerpt: Fig. 2 Viral and cellular responses to K-Rta peptide; identification of VGN50. a Protein sequence alignment. Homologous protein sequences were searched for with BLAST and extracted from other gamma-herpesviral homologs. The consensus protein sequence is depicted at the bottom of table. b Peptide design. Deletion peptides were designed based on the consensus sequence in a. The TAT protein sequence was used as a cell-penetrating peptide (CPP) and placed downstream from the K-Rta protein sequence. (d-R) D amino acid arginine, (ORN) ornithine, (bAla) beta alanine. c Sub cellular peptide localization. Cy5-labeled peptide 1 was used to track subcellular localization. Nuclei were visualized by DAPI staining. The scale is indicated in the panel. d MTT assays with deletion and mutant peptides. Peptide listed in b were incubated with BC-1 cells and MTT conversion was measured 48 h after incubation. The OD of mock-treated samples were set as 100%, and OD from detergent-treated cells were set as 0%. The amount of each peptide used for incubation is depicted along the x-axis. Mean percentage viability ±SD were calculated for each treatment group (n = 3 samples). Peptide 1 was renamed as VGN50. e Flow cytometry analyses of cell proliferation and apoptosis induction. Cells were incubated with VGN50 or mutant peptide (three alanine substitutions) for 24 h followed by measurements of percentage cell proliferation (Ki67 staining) and apoptosis induction (Annexin V staining). Standard deviation bars are included. (n = 3) Two-way Anova, followed by Sidak’s multiple comparisons test. f The effect of VGN50 on various cancer cell types. MTT assays were performed with the indicated cell lines treated with various VGN50 concentrations. The OD of mock-treated samples were set as 100%, and OD from detergent-treated cells were set as 0%. Mean percentage viability ±SD was calculated for each treatment (n = 3 samples/treatment). g Viability assay with flow cytometry. Cell viability was measured in triplicate with live/dead staining and the cell killing effects on cancer cells was compared with normal peripheral blood mononuclear cells (PBMC) from three healthy donors. Results are presented as mean percentage viability ±SD (n = 3 samples/group). f, g Ordinary one-way Anova, followed by Tukey’s multiple comparisons test. […]
Leukoreduction system chambers (LRS) from healthy donors were purchased from Vitalant. […] Cell death, apoptosis, and proliferation were analyzed by flow cytometry (BD Acuri) after intracellular staining with anti-humanKi67-Alexa488 (Biolegend, 1:100) along with the isotype control antibody, annexin-V-FITC with 7-AAD staining (Biolegend) according to the manufacture’s protocol, Live/dead Fixable Red Dead Cell staining kit (Invitrogen) according to the manufacture’s protocol, or MTT assay. […]

SMILES: CC(C)C[C@H](NC(=O)CCNC(=O)[C@H](CCCNC(=N)N)NC(=O)[C@H](CCCNC(=N)N)NC(=O)[C@H](CCCNC(=N)N)NC(=O)[C@H](CCCN)NC(=O)[C@H](CCCNC(=N)N)NC(=O)[C@H](CCCNC(=N)N)NC(=O)[C@H](CCCCN)NC(=O)[C@H](CCCCN)NC(=O)[C@H](N)CCCNC(=N)N)C(=O)N[C@@H](CO)C(=O)N[C@@H](CO)C(=O)N[C@@H](C)C(=O)N[C@@H](C)C(=O)N[C@@H](C)C(=O)NCC(=O)N[C@@H](CC(C)C)C(=O)N[C@@H](Cc1ccc(O)cc1)C(=O)N[C@@H](CCC(N)=O)C(=O)N[C@@H](CC(C)C)C(=O)N[C@@H](CC(=O)O)C(=O)N[C@H](C(=O)O)[C@@H](C)O [Mt-P] (H-[dR]KKRR[Orn]RRR[βAla]LSSAAAGLYQLDT-OH; N-terminus and C-terminus assumed)
- Reduction of cell viability (MTT) compared to untreated control: 20%
